US5597803A, “Bradykinin peptides with modifications at the N terminus” (Hoechst Aktiengesellschaft, priority 1992, dated 1997)

How the values were obtained:
[1] = target: T1, isolated guinea pig pulmonary artery (Cavia porcellus, UniProt O70526); assay: bradykinin-antagonistic action on the isolated guinea pig pulmonary artery (inhibition of bradykinin-induced contraction); format: cell-based; settings: contraction by 2×10^-7 mol/l bradykinin; peptides 5×10^-8 -1×10^-5 mol/l for 10 minutes; calculated from dose-effect plots; unit inferred
T1 sequence (O70526 1-372): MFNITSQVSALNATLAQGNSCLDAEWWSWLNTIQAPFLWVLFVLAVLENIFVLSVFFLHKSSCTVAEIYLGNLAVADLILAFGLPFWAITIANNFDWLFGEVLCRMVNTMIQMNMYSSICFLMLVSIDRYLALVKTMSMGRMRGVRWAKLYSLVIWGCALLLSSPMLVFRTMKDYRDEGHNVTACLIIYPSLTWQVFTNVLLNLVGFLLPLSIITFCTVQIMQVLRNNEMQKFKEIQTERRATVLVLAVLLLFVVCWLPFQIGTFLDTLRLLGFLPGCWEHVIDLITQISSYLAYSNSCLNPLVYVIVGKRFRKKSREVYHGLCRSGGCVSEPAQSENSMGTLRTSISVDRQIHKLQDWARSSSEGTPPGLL
Excerpt: The peptides according to the invention have, singly or in combination, a bradykinin-antagonistic action which can be tested in various models (see Handbook of Exp. Pharmacol. Vol. 25, Springer Verlag, 1970, pages 53-55), for example on the isolated rat uterus, on the guinea pig ileum or on the isolated guinea pig pulmonary artery.
(§1) To test the peptides according to the invention on the isolated pulmonary artery, guinea pigs (Dunkin Hartley) weighing 400-450 g are sacrificed by a blow to the back of the neck. The thorax is opened and the pulmonary artery is carefully dissected out. The surrounding tissue is cautiously removed and the pulmonary artery is cut open in a spiral at an angle of 45°. The strip of vessel 2.5 cm long and 3-4 mm wide is fixed in an organ bath which has a capacity of 10 ml and is filled with Ringer solution.
(§2) 95% O2 and 5% CO2 is bubbled through the solution, which is heated to 37° C. The pH is 7.4 and the preload on the strip of vessel is 1.0 g.
(§3) The isometric contraction changes are detected using a lever attachment and an HF modem (position sensor) from Hugo Sachs and are recorded on a potentiometric recorder (BEC, Goerz Metrawatt SE 460).
The experiment is started after equilibration for 1 hour. After the strips of vessel have reached their maximum sensitivity to 2×10^-7 mol/1 bradykinin--bradykinin leads to contraction of the strips of vessel--the peptides are left to act in doses of 5×10^-8 -1×10^-5 mol/l for 10 minutes each and, after renewed addition of bradykinin, the decrease in the effect of bradykinin is compared with the control.

[2] = target: T1, isolated guinea pig pulmonary artery; assay: duration of action (T50) on the isolated pulmonary artery after replacement of the peptide-containing buffer; format: cell-based; settings: time until strips again reach maximum sensitivity to 2×10^-7 mol/l bradykinin after washout; measure of duration of action; found by calculation
Protocol: as §1, §2, §3
The experiment is started after equilibration for 1 hour. […]
For some selected compounds, the time until the strips of vessel have again reached their maximum sensitivity to 2×10^-7 mol/l bradykinin after replacement of the peptide-containing by a "simple" buffer was also determined in the experimental arrangement described above. […]

[3] = test system: carrageenan-induced edema of the rat paw; assay: carrageenan-induced edema of the rat paw, systemic administration; format: in vivo; settings: 15 min before carrageenan, male Sprague-Dawley rats, mean and standard deviation
Protocol: Antiinflammatory effect after systemic administration: carrageenan-induced edema of the rat paw
The test chosen for the acute systemic antiinflammatory effect is the carrageenan-induced edema of the rat paw by the method described by Winter C. A. et al., Proc. Soc. Exp. Biol. (N.Y.), 111, 544 (1962). Male Sprague-Dawley rats weighing about 170 g in groups of 5 animals receive the substances to be tested subcutaneously dissolved in distilled water (1 ml/kg bodyweight). 15 min later, after measurement of the initial volume of the paw, 0.1 ml of 0.5% strength carrageenan solution is injected under ether anesthesia into the left rear paw. The increase in volume of the swelling is measured 3 and 6 h later, Controls receive only the vehicle. The paw volume is reported in ml (mean and standard deviation).

Row | Substance | IC50 [1] | T50 (pulmonary artery) [2] | Increase in paw volume after 3 h ([3]; 0.1 mg/kg subcutaneously) | Increase in paw volume after 6 h ([3]; 0.1 mg/kg subcutaneously) | Increase in paw volume after 3 h ([3]; 1.0 mg/kg subcutaneously) | Increase in paw volume after 6 h ([3]; 1.0 mg/kg subcutaneously)
1 | Fmoc-(4-aminocyclohexylcarbonyl)-D-Arg-Arg-Pro-Hyp-Gly-Thi-Ser-D-Tic-Oic-Arg-OH [Example 15] | 25 nM | – | – | – | – | –
2 | Fmoc-Aoc-D-Arg-Arg-Pro-Hyp-Gly-Thia-Ser-D-Tic-Oic-Arg-OH [Example 2] | 8.5 nM | 253.3 min | 0.13 ± 0.04 mL | 0.29 ± 0.08 mL | 0.19 ± 0.06 mL | 0.27 ± 0.06 mL
3 | Fmoc-D-Aoc-Arg -Arg-Pro-Hyp-Gly-Thi-Ser-D-Tic-Oic-Arg-OH [Example 7] | 22 nM | – | – | – | – | –
